Assay [1] concerns the target T1, Lysosomal acid glucosylceramidase (Homo sapiens) (UniProt P04062).
T1 sequence (whole entry): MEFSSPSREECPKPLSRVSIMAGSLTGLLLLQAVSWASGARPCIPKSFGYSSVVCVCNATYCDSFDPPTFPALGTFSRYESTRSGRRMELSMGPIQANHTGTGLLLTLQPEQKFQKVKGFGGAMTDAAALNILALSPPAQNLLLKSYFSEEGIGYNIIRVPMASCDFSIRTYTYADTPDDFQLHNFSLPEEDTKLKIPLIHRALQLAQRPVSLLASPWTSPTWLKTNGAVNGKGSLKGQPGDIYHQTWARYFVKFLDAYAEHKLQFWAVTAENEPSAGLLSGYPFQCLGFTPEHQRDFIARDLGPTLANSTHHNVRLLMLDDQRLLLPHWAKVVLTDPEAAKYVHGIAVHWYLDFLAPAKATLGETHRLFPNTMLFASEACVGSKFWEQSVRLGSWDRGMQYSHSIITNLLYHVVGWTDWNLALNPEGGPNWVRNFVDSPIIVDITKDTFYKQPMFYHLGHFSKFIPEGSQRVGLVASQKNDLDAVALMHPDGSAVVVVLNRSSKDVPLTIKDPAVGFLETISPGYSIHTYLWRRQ
Nature of the assay: Inhibition of human beta-glucocerebrosidase at 20 uM by fluorescence spectrophotometry.

In assay [2] the test system is T2, Lysosomal acid glucosylceramidase (Homo sapiens), P04062 [N409S].
T2 sequence (whole entry): T1 sequence (whole entry) with N409S
The assay is described as follows: Induction of beta-glucocerebrosidase N370S mutant in human GM00372 cells using 4-methylumbelliferyl-beta-D-glucopyranoside as substrate at 12.5 uM by fluorescence spectrophotometry relative to untreated control. The assay is classed as cell-based.

For assay [3], the target named is T3, Lysosomal acid glucosylceramidase (Homo sapiens, UniProt P04062).
T3 sequence (P04062 whole entry): T1 sequence (whole entry)
Nature of the assay: Competitive inhibition of human beta-glucocerebrosidase by Lineweaver-Burk double reciprocal plot method.

Assay [4] deals with Lysosomal alpha-glucosidase (Homo sapiens) (UniProt P10253). The assay is described as follows: Induction of alpha-glucosidase in human GM00372 cells using 4-methylumbelliferyl alpha-D-glucoside as substrate at 20 to 100 uM after 4 days by fluorescence spectrophotometry relative to untreated control. It is filed as cell-based.
For assay [5], the system named is T2, Lysosomal acid glucosylceramidase (Homo sapiens), P04062 [N409S]. The assay is described as follows: Induction of beta-glucocerebrosidase N370S mutant in human GM00372 cells using 4-methylumbelliferyl-beta-D-glucopyranoside as substrate at 50 uM by fluorescence spectrophotometry relative to untreated control. The assay is classed as cell-based.
The target in assay [6] is Lysosomal alpha-glucosidase (Homo sapiens) (UniProt P10253). The assay is described as follows: Induction of alpha-glucosidase in human GM00372 cells using 4-methylumbelliferyl alpha-D-glucoside as substrate at <6.25 uM after 4 days by fluorescence spectrophotometry relative to untreated control. It is filed as cell-based.
Assay [7] relates to T2, Lysosomal acid glucosylceramidase (Homo sapiens), P04062 [N409S]. Nature of the assay: Induction of beta-glucocerebrosidase N370S mutant in human GM00372 cells using 4-methylumbelliferyl-beta-D-glucopyranoside as substrate at 625 nM by fluorescence spectrophotometry relative to untreated control. It is filed as cell-based.
The target in assay [8] is Lysosomal alpha-glucosidase (Homo sapiens) (UniProt P10253). Nature of the assay: Induction of alpha-glucosidase in human GM00372 cells using 4-methylumbelliferyl alpha-D-glucoside as substrate at 1.5 uM after 4 days by fluorescence spectrophotometry relative to untreated control. It is filed as cell-based.
The target is the same in assay [9]. The assay is described as follows: Induction of alpha-glucosidase in human GM00372 cells using 4-methylumbelliferyl alpha-D-glucoside as substrate at 6.2 uM after 4 days by fluorescence spectrophotometry relative to untreated control. The assay is classed as cell-based.
In assay [10] the test system is T2, Lysosomal acid glucosylceramidase (Homo sapiens), P04062 [N409S]. The assay is described as follows: Induction of beta-glucocerebrosidase N370S mutant in human GM00372 cells using 4-methylumbelliferyl-beta-D-glucopyranoside as substrate at 3.1 uM by fluorescence spectrophotometry relative to untreated control. The assay is classed as cell-based.
The test system is the same in assay [11]. Nature of the assay: Induction of beta-glucocerebrosidase N370S mutant in human GM00372 cells using 4-methylumbelliferyl-beta-D-glucopyranoside as substrate at 6.2 uM by fluorescence spectrophotometry relative to untreated control. The assay is classed as cell-based.
For assay [12] the test system is unchanged. The assay is described as follows: Induction of beta-glucocerebrosidase N370S mutant in human GM00372 cells using 4-methylumbelliferyl-beta-D-glucopyranoside as substrate at 1.5 uM by fluorescence spectrophotometry relative to untreated control. It is filed as cell-based.
Assay [13] shares this test system. Nature of the assay: Induction of beta-glucocerebrosidase N370S mutant trafficking from endoplasmic reticulum to lysosome in human GM00372 cells at 5 uM by immunocytochemistry. The assay is classed as cell-based.
For assay [14] the test system is unchanged. Nature of the assay: Induction of beta-glucocerebrosidase N370S mutant in human GM00372 cells using 4-methylumbelliferyl-beta-D-glucopyranoside as substrate at 25 uM by fluorescence spectrophotometry relative to untreated control. It is filed as cell-based.
Assay [15] addresses T3, Lysosomal acid glucosylceramidase. Nature of the assay: Non-competitive inhibition of human beta-glucocerebrosidase by Lineweaver-Burk double reciprocal plot method.
The target of assay [16] is Lysosomal alpha-glucosidase (Homo sapiens) (UniProt P10253). Nature of the assay: Induction of alpha-glucosidase in human GM00372 cells using 4-methylumbelliferyl alpha-D-glucoside as substrate at 25 uM after 4 days by fluorescence spectrophotometry relative to untreated control. It is filed as cell-based.

Residue numbers refer to the chain shown, from its start. The source made the active and inactive calls. No cut-off for these calls is given here. A value given as a limit tells only on which side of the number the result lay.

In turn, `O=C(CC1CCCC1)NCCCCN1C[C@H](O)[C@@H](O)[C@H](O)[C@H]1CO` gave an inhibition in [1] of less than 60%.

In the case of `CC[C@@H]1[C@@H](O)[C@H](O)[C@@H](CO)N1CCCCNC(=O)CC1c2ccccc2-c2ccccc21`, the fold change (FC) in assay [2] was 1.6.

The molecule `O=C(CC1CCCCC1)NCCCCN1C[C@H](O)[C@@H](O)[C@H](O)[C@H]1CO` yielded an inhibition in [1] of less than 60%.

As for `O=C(NCCCCN1C[C@H](O)[C@@H](O)[C@H](O)[C@H]1CO)C1CCc2ccccc2C1` (some centres not stated), the inhibition result in assay [1] is “Active”. This molecule yielded a Ki in assay [3] of 1000 nM.

As to `O=C(COc1ccc(Cl)c(Cl)c1)NCCCCN1C[C@H](O)[C@@H](O)[C@H](O)[C@H]1CO`, in assay [1], the inhibition result is “Active”. The Ki in assay [3] amounted to 3200 nM.

The molecule `O=C(NCCCCN1C[C@H](O)[C@@H](O)[C@H](O)[C@H]1CO)C1CCC1` gave an inhibition in [1] of less than 60%.

In turn, `O=C(CC1c2ccccc2-c2ccccc21)NCCCCN1C[C@@H](O)[C@H](O)[C@H]1CO` returned an Activity in assay [4] of less than 10%. For the same molecule, in [5], the fold change (FC) came to 1.8.

For the molecule `O=C(CC(c1ccccc1)(c1ccccc1)c1ccccc1)NCCCCN1C[C@H](O)[C@@H](O)[C@H](O)[C@H]1CO`, the inhibition result in assay [1] is “Active”. In addition, the Activity in assay [6] was found to be 60%. Besides, the inhibitory constant (Ki) in assay [3] is 400 nM. The fold change (FC) came to 1.8 in assay [7] and 0.4 in [8].

Regarding `CCCCCCCCCN1C[C@H](O)[C@@H](O)[C@H](O)[C@H]1CO`, the fold change (FC) in assay [9] came to 0.4. Also, the Activity in assay [6] came to 60%.

Take `O=C(NCCCCN1C[C@H](O)[C@@H](O)[C@H](O)[C@H]1CO)C1CCCC1`: the inhibition in assay [1] was less than 60%.

Consider `CC[C@@H]1[C@@H](O)[C@H](O)[C@@H](CO)N1CCCCNC(=O)CC(c1ccccc1)(c1ccccc1)c1ccccc1`, for which the fold change (FC) in assay [10] turned out to be 1.4.

`O=C(CCC1CCCC1)NCCCCN1C[C@H](O)[C@@H](O)[C@H](O)[C@H]1CO` yielded an inhibition in assay [1] of less than 60%.

Consider `O=C(CC1c2ccccc2-c2ccccc21)NCCCCN1C[C@H](O)[C@@H](O)[C@H](O)[C@H]1CO`, for which, in assay [1], the inhibition entry was “Active”. Besides, the fold change (FC) in assay [2] worked out at 1.9; in [8] it was 0.3. In [6], the Activity came to 60%. In assay [3], the inhibitory constant (Ki) worked out at 400 nM.

Consider `O=C(CC1c2ccccc2-c2ccccc21)NCCCCN1[C@H](CO)[C@@H](O)[C@H](O)[C@H]1CO`, for which the Activity in [4] was less than 10%. In assay [11], the fold change (FC) turned out to be 1.7.

In assay [4], `O=C(CC(c1ccccc1)(c1ccccc1)c1ccccc1)NCCCCN1[C@H](CO)[C@@H](O)[C@H](O)[C@H]1CO` had an Activity of less than 10%. Besides, the Ki in assay [3] worked out at 4100 nM. For the same molecule, the fold change (FC) in [12] was found to be 2.2. In assay [13], the result was Active.

Take `O=C(Cc1cc(C(F)(F)F)cc(C(F)(F)F)c1)NCCCCN1C[C@H](O)[C@@H](O)[C@H](O)[C@H]1CO`: the inhibition result in assay [1] is “Active”. The fold change (FC) came out at 1.75 in assay [2] and 0.4 in assay [8]. Further, the Activity in [6] amounted to 60%. The molecule further gave an inhibition constant Ki in [3] of 71 nM.

Regarding `COc1ccc2c(c1)C(CC(=O)NCCCCN1C[C@H](O)[C@@H](O)[C@H](O)[C@H]1CO)CC2` (some centres not stated), the inhibition result in assay [1] is “Active”. Besides, the fold change (FC) in assay [14] was 1.5. In [15], this molecule displayed a Ki of 1100 nM.

Take `O=C(CC(c1ccccc1)(c1ccccc1)c1ccccc1)NCCCCN1C[C@@H](O)[C@H](O)[C@H]1CO`: the fold change (FC) stood at 2.5 in [11] and 1.2 in [16].

In the case of `O=C(NCCCCN1C[C@H](O)[C@@H](O)[C@H](O)[C@H]1CO)C1CC1`, the inhibition in assay [1] is less than 60%.

Broadly, the inhibition is the change of the read-out against control, counted positive when it falls. As a reminder, the Ki is the equilibrium dissociation constant of an inhibitor or competing ligand from its target.

Source of the values: ChEMBL document CHEMBL2413029, “Rapid modifications of N-substitution in iminosugars: development of new β-glucocerebrosidase inhibitors and pharmacological chaperones for Gaucher disease” (Bioorg Med Chem, 2013).
